{"source": "patent US20060069132A1", "about": "“Azolecarboxamide herbicides” (priority 2004, published 2006)", "key": {"[1]": {"test_system": "small flower umbrella sedge", "test": "Test B flooded paddy test", "format": "in vivo, Cyperus difformis", "details": "1000 g ai/ha, visual rating, scale 0 to 100 (0 no effect, 100 complete control), 13 to 15 days", "how_it_was_run": "(§1)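 Visual control ratings, 0–100 versus untreated controls, taken after 13 to 15 days in the greenhouse. Blackgrass received a postemergence spray at the 1- to 4-leaf stage (2–18 cm); ducksalad, umbrella sedge and barnyardgrass were flooded-paddy treated at 2 leaves.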"}, "cocklebur": {"test_system": "cocklebur", "test": "Test B pre-/postemergence herbicide test", "format": "in vivo, Xanthium strumarium", "details": "for Cocklebur plant response rating: postemergence, visual rating, scale 0 (no effect) to 100 (complete control)", "how_it_was_run": "(§2)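 Response was scored visually 13 to 15 days after treatment against untreated greenhouse controls, 0 meaning no effect and 100 complete control. Formulations (solvent mixture plus surfactant) went onto soil after planting, onto foliage of 1- to 4-leaf plants, and onto 2-leaf plants in a flooded paddy set including rice and barnyardgrass.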"}, "velvetleaf": {"test_system": "velvetleaf", "test": "Test B pre-/postemergence herbicide test", "format": "in vivo, Abutilon theophrasti", "details": "for Plant response rating, Velvetleaf: preemergence; for Velvetleaf plant response rating: postemergence, visual rating, scale 0 (no effect) to 100 (complete control)", "how_it_was_run": "(§3)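 Flooded paddy rice and barnyardgrass were treated at the 2-leaf stage; upland plantings received compound either on sown seed or on 1- to 4-leaf seedlings. All were kept 13–15 days in a greenhouse and scored visually, 0–100, relative to untreated plants.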"}, "lambsquarters": {"test_system": "lambsquarters", "test": "Test B pre-/postemergence herbicide test", "format": "in vivo, Chenopodium album", "details": "for Plant response rating, Lambsquarters: preemergence; for Lambsquarters plant response rating: postemergence, visual rating, scale 0 (no effect) to 100 (complete control)", "how_it_was_run": "as §3"}, "barnyardgrass [2]": {"test_system": "barnyardgrass", "test": "Test B flooded paddy test", "format": "in vivo, Echinochloa crus-galli", "details": "1000 g ai/ha, visual rating, scale 0 to 100 (0 no effect, 100 complete control), 13 to 15 days", "how_it_was_run": "as §1"}, "Surinam grass": {"test_system": "Surinam grass", "test": "Test B pre-/postemergence herbicide test", "format": "in vivo, Urochloa decumbens", "details": "for Plant response rating, Surinam Grass: preemergence; for Surinam Grass plant response rating: postemergence, visual rating, scale 0 (no effect) to 100 (complete control)", "how_it_was_run": "as §3"}, "large crabgrass": {"test_system": "large crabgrass", "test": "Test B pre-/postemergence herbicide test", "format": "in vivo, Digitaria sanguinalis", "details": "for Plant response rating, Crabgrass, Large: preemergence; for Crabgrass, Large plant response rating: postemergence, visual rating, scale 0 (no effect) to 100 (complete control)", "how_it_was_run": "as §3"}, "giant foxtail": {"test_system": "giant foxtail", "test": "Test B pre-/postemergence herbicide test", "format": "in vivo, Setaria faberi", "details": "for Plant response rating, Foxtail, Giant: preemergence; for Foxtail, Giant plant response rating: postemergence, visual rating, scale 0 (no effect) to 100 (complete control)", "how_it_was_run": "as §3"}, "blackgrass": {"test_system": "blackgrass", "test": "Test B postemergence herbicide test", "format": "in vivo, Alopecurus myosuroides", "details": "postemergence, visual rating, scale 0 (no effect) to 100 (complete control)", "how_it_was_run": "as §1"}, "wheat": {"test_system": "wheat", "test": "Test B postemergence herbicide test", "format": "in vivo, Triticum aestivum", "parameters": "key to Wheat plant response rating: 0 = no effect, 100 = complete control", "details": "postemergence, 500 g ai/ha; visual rating, scale 0 (no effect) to 100 (complete control)", "how_it_was_run": "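Visual ratings, 0 (no effect) to 100 (complete control), made versus controls after 13–15 d greenhouse. Paddy plants treated at 2-leaf stage; postemergence plants at 1- to 4-leaf stage, 2–18 cm tall.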"}, "pigweed": {"test_system": "pigweed", "test": "Test B pre-/postemergence herbicide test", "format": "in vivo, Amaranthus retroflexus", "details": "for Plant response rating, Pigweed: preemergence; for Pigweed plant response rating: postemergence, visual rating, scale 0 (no effect) to 100 (complete control)", "how_it_was_run": "as §3"}, "barnyardgrass [3]": {"test_system": "barnyardgrass", "test": "Test B pre-/postemergence herbicide test", "format": "in vivo, Echinochloa crus-galli", "details": "for Plant response rating, Barnyardgrass: preemergence; for Barnyardgrass plant response rating: postemergence, visual rating, scale 0 (no effect) to 100 (complete control)", "how_it_was_run": "as §2"}, "morningglory": {"test_system": "morningglory", "test": "Test B pre-/postemergence herbicide test", "format": "in vivo, Ipomoea coccinea", "details": "postemergence, visual rating, scale 0 (no effect) to 100 (complete control)", "how_it_was_run": "as §2"}, "ducksalad": {"test_system": "ducksalad", "test": "Test B flooded paddy test", "format": "in vivo, Heteranthera limosa", "details": "1000 g ai/ha, visual rating, scale 0 to 100 (0 no effect, 100 complete control), 13 to 15 days", "how_it_was_run": "as §1"}, "rice": {"test_system": "rice", "test": "Test B flooded paddy test", "format": "in vivo, Oryza sativa", "details": "1000 g ai/ha, visual rating, scale 0 to 100 (0 no effect, 100 complete control), 13 to 15 days", "how_it_was_run": "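After treating 2-leaf paddy plants or 2–18 cm postemergence plants (1 to 4 leaves) with formulated chemical, researchers kept them in a greenhouse for 13–15 days. Effects were judged visually versus controls: 0 indicates none, 100 total control.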"}, "[4]": {"details": "500 g ai/ha, visual rating 0-100, 0 no effect, 100 complete control"}, "[5]": {"details": "125 g ai/ha, 0 to 100 scale, 0 is no effect, 100 is complete control"}}}
{"smiles": "CCn1nc(C(C)(C)C)cc1C(=O)Nc1cc(C#N)ccc1F", "note": "[Compound 140]", "values": [{"measurement": "Sedge, Umbrella plant response rating", "setting": "[1]", "result": 80}, {"measurement": "Plant response rating, Cocklebur", "setting": "cocklebur; 500 g ai/ha, visual rating 0-100, 0 no effect, 100 complete control, preemergence", "result": 80}, {"measurement": "Cocklebur plant response rating", "setting": "cocklebur; 125 g ai/ha", "result": 0}, {"measurement": "Cocklebur plant response rating", "setting": "cocklebur; 500 g ai/ha", "result": 20}, {"measurement": "Plant response rating, Velvetleaf", "setting": "velvetleaf; [4]", "result": 20}, {"measurement": "Velvetleaf plant response rating", "setting": "velvetleaf; 125 g ai/ha", "result": 0}, {"measurement": "Velvetleaf plant response rating", "setting": "velvetleaf; 500 g ai/ha", "result": 0}, {"measurement": "Plant response rating, Velvetleaf", "setting": "velvetleaf; [5]", "result": 0}, {"measurement": "Plant response rating, Lambsquarters", "setting": "lambsquarters; [4]", "result": 100}, {"measurement": "Lambsquarters plant response rating", "setting": "lambsquarters; 125 g ai/ha", "result": 20}, {"measurement": "Lambsquarters plant response rating", "setting": "lambsquarters; 500 g ai/ha", "result": 80}, {"measurement": "Plant response rating, Lambsquarters", "setting": "lambsquarters; [5]", "result": 0}, {"measurement": "Barnyardgrass plant response rating", "setting": "barnyardgrass [2]", "result": 70}, {"measurement": "Plant response rating, Surinam Grass", "setting": "Surinam grass; [4]", "result": 60}, {"measurement": "Surinam Grass plant response rating", "setting": "Surinam grass; 125 g ai/ha", "result": 0}, {"measurement": "Surinam Grass plant response rating", "setting": "Surinam grass; 500 g ai/ha", "result": 0}, {"measurement": "Plant response rating, Surinam Grass", "setting": "Surinam grass; [5]", "result": 0}, {"measurement": "Plant response rating, Crabgrass, Large", "setting": "large crabgrass; [4]", "result": 100}, {"measurement": "Crabgrass, Large plant response rating", "setting": "large crabgrass; 125 g ai/ha", "result": 0}, {"measurement": "Crabgrass, Large plant response rating", "setting": "large crabgrass; 500 g ai/ha", "result": 0}, {"measurement": "Plant response rating, Crabgrass, Large", "setting": "large crabgrass; [5]", "result": 0}, {"measurement": "Plant response rating, Foxtail, Giant", "setting": "giant foxtail; [4]", "result": 80}, {"measurement": "Foxtail, Giant plant response rating", "setting": "giant foxtail; 125 g ai/ha", "result": 0}, {"measurement": "Foxtail, Giant plant response rating", "setting": "giant foxtail; 500 g ai/ha", "result": 0}, {"measurement": "Plant response rating, Foxtail, Giant", "setting": "giant foxtail; [5]", "result": 0}, {"measurement": "Blackgrass plant response rating", "setting": "blackgrass; 125 g ai/ha", "result": 0}, {"measurement": "Blackgrass plant response rating", "setting": "blackgrass; 500 g ai/ha", "result": 0}, {"measurement": "Wheat plant response rating", "setting": "wheat", "result": 0}, {"measurement": "Plant response rating, Pigweed", "setting": "pigweed; [4]", "result": 80}, {"measurement": "Pigweed plant response rating", "setting": "pigweed; 125 g ai/ha", "result": 0}, {"measurement": "Pigweed plant response rating", "setting": "pigweed; 500 g ai/ha", "result": 0}, {"measurement": "Plant response rating, Pigweed", "setting": "pigweed; [5]", "result": 0}, {"measurement": "Plant response rating, Barnyardgrass", "setting": "barnyardgrass [3]; [4]", "result": 80}, {"measurement": "Barnyardgrass plant response rating", "setting": "barnyardgrass [3]; 125 g ai/ha", "result": 0}, {"measurement": "Barnyardgrass plant response rating", "setting": "barnyardgrass [3]; 500 g ai/ha", "result": 0}, {"measurement": "Plant response rating, Barnyardgrass", "setting": "barnyardgrass [3]; [5]", "result": 20}, {"measurement": "Morningglory plant response rating", "setting": "morningglory; 125 g ai/ha", "result": 0}, {"measurement": "Morningglory plant response rating", "setting": "morningglory; 500 g ai/ha", "result": 0}, {"measurement": "Ducksalad plant response rating", "setting": "ducksalad", "result": 80}, {"measurement": "Rice plant response rating", "setting": "rice", "result": 30}]}
